# Experimental data from US5672715A, “Herbicidal substituted 3-aryl-pyrazoles” (Monsanto Company, priority 1995, dated 1997).
# Like-named read-outs stand apart in the source and are kept apart here.
# Experiments:
# Assay type in all cases: in vivo
# Barnyardgrass [1] = assay: pre-emergence herbicide test; conditions: Echinochloa crus-galli, pre-emergence, read-out: % plant inhibition
# Procedure, shortened: (§1)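 Seeds were sown on compacted topsoil in pans and covered with a topsoil layer carrying a known amount of active ingredient in acetone or water, applied before or after covering. Pans were bottom-watered on a greenhouse bench, and % inhibition was scored about 14 days after seeding and treatment.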
# Cocklebur = assay: pre-emergence herbicide test; conditions: Xanthium strumarium, pre-emergence, read-out: % plant inhibition
# Procedure, shortened: as §1
# Corn [2] = assay: pre-emergence herbicide test; conditions: Zea mays, pre-emergence, read-out: % plant inhibition
# Procedure, shortened: as §1
# Morning Glory = assay: pre-emergence herbicide test; conditions: Ipomoea, pre-emergence, read-out: % plant inhibition
# Procedure, shortened: as §1
# Rice = assay: pre-emergence herbicide test; conditions: Oryza sativa, read-out: % plant inhibition
# Procedure, shortened: as §1
# Soybean [3] = assay: pre-emergence herbicide test; conditions: Glycine max, pre-emergence, read-out: % plant inhibition
# Procedure, shortened: as §1
# Velvetleaf [4] = assay: pre-emergence herbicide test; conditions: Abutilon theophrasti, pre-emergence, read-out: % plant inhibition
# Procedure, shortened: as §1
# Yellow Foxtail [5] = assay: pre-emergence herbicide test; conditions: Setaria, read-out: % plant inhibition
# Procedure, shortened: as §1
# Yellow Nutsedge = assay: pre-emergence herbicide test; conditions: Cyperus, read-out: % plant inhibition
# Procedure, shortened: as §1
# Barnyardgrass [6] = assay: post-emergence herbicide test; conditions: Echinochloa crus-galli, post-emergence, read-out: % plant inhibition
# Procedure, shortened: (§2)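 Greenhouse pot test: seeds pressed into compacted topsoil in pans, covered, watered as needed; at two to three weeks plants were sprayed by atomizer at 170.3 kPa, 1870 L/Ha, with about 0.4% v/v emulsifier. Value is percent inhibition per species.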
# Blackgrass = assay: post-emergence herbicide test; conditions: Alopecurus myosuroides, post-emergence, read-out: % plant inhibition; for inhibition at 7.95803 g/ha: 0.0071 lb/A; for inhibition at 40.0143 g/ha: 0.0357 lb/A; for inhibition at 200.072 g/ha: 0.1785 lb/A; for inhibition at 1000.92 g/ha: 0.893 lb/A
# Procedure, shortened: as §2
# Corn [7] = assay: post-emergence herbicide test; conditions: Zea mays, post-emergence, read-out: % plant inhibition
# Procedure, shortened: as §2
# Soybean [8] = assay: post-emergence herbicide test; conditions: Glycine max, post-emergence, read-out: % plant inhibition
# Procedure, shortened: as §2
# Velvetleaf [9] = assay: post-emergence herbicide test; conditions: Abutilon theophrasti, post-emergence, read-out: % plant inhibition
# Procedure, shortened: as §2
# Wheat = assay: post-emergence herbicide test; conditions: Triticum aestivum, post-emergence, read-out: % plant inhibition
# Procedure, shortened: as §2
# Yellow Foxtail [10] = assay: post-emergence herbicide test; conditions: Setaria, read-out: % plant inhibition
# Procedure, shortened: as §2
structure (smiles),measurement,setting,value
Cc1c(-c2cc(OCC(=O)OC(C)C)c(Cl)cc2F)nn(C)c1C(F)(F)F [Compound 38],inhibition at 7.95803 g/ha,Barnyardgrass [1]; 0.0071 lb/A,0%
same,inhibition at 40.0143 g/ha,Barnyardgrass [1]; 0.0357 lb/A,15%
same,inhibition at 200.072 g/ha,Barnyardgrass [1]; 0.1785 lb/A,35%
same,inhibition at 1000.92 g/ha,Barnyardgrass [1]; 0.893 lb/A,70%
same,inhibition at 40.0143 g/ha,Cocklebur; 0.0357 lb/A,65%
same,inhibition at 200.072 g/ha,Cocklebur; 0.1785 lb/A,85%
same,inhibition at 280.212 g/ha,Cocklebur; 0.25 lb/A,70%
same,inhibition at 1000.92 g/ha,Cocklebur; 0.893 lb/A,90%
same,inhibition at 7.95803 g/ha,Corn [2]; 0.0071 lb/A,0%
same,inhibition at 40.0143 g/ha,Corn [2]; 0.0357 lb/A,0%
same,inhibition at 200.072 g/ha,Corn [2]; 0.1785 lb/A,0%
same,inhibition at 1000.92 g/ha,Corn [2]; 0.893 lb/A,40%
same,inhibition at 7.95803 g/ha,Morning Glory; 0.0071 lb/A,20%
same,inhibition at 40.0143 g/ha,Morning Glory; 0.0357 lb/A,75%
same,inhibition at 200.072 g/ha,Morning Glory; 0.1785 lb/A,95%
same,inhibition at 280.212 g/ha,Morning Glory; 0.25 lb/A,100%
same,inhibition at 1000.92 g/ha,Morning Glory; 0.893 lb/A,100%
same,inhibition at 7.95803 g/ha,Rice; 0.0071 lb/A,0%
same,inhibition at 40.0143 g/ha,Rice; 0.0357 lb/A,0%
same,inhibition at 200.072 g/ha,Rice; 0.1785 lb/A,0%
same,inhibition at 1000.92 g/ha,Rice; 0.893 lb/A,40%
same,inhibition at 7.95803 g/ha,Soybean [3]; 0.0071 lb/A,0%
same,inhibition at 40.0143 g/ha,Soybean [3]; 0.0357 lb/A,5%
same,inhibition at 280.212 g/ha,Soybean [3]; 0.25 lb/A,0%
same,inhibition at 1000.92 g/ha,Soybean [3]; 0.893 lb/A,70%
same,inhibition at 7.95803 g/ha,Velvetleaf [4]; 0.0071 lb/A,100%
same,inhibition at 40.0143 g/ha,Velvetleaf [4]; 0.0357 lb/A,80%
same,inhibition at 200.072 g/ha,Velvetleaf [4]; 0.1785 lb/A,98%
same,inhibition at 280.212 g/ha,Velvetleaf [4]; 0.25 lb/A,100%
same,inhibition at 1000.92 g/ha,Velvetleaf [4]; 0.893 lb/A,100%
same,inhibition at 7.95803 g/ha,Yellow Foxtail [5]; 0.0071 lb/A,0%
same,inhibition at 40.0143 g/ha,Yellow Foxtail [5]; 0.0357 lb/A,0%
same,inhibition at 200.072 g/ha,Yellow Foxtail [5]; 0.1785 lb/A,25%
same,inhibition at 280.212 g/ha,Yellow Foxtail [5]; 0.25 lb/A,40%
same,inhibition at 1000.92 g/ha,Yellow Foxtail [5]; 0.893 lb/A,65%
same,inhibition at 7.95803 g/ha,Yellow Nutsedge; 0.0071 lb/A,0%
same,inhibition at 40.0143 g/ha,Yellow Nutsedge; 0.0357 lb/A,20%
same,inhibition at 200.072 g/ha,Yellow Nutsedge; 0.1785 lb/A,0%
same,inhibition at 1000.92 g/ha,Yellow Nutsedge; 0.893 lb/A,85%
same,inhibition at 7.95803 g/ha,Barnyardgrass [6]; 0.0071 lb/A,10%
same,inhibition at 40.0143 g/ha,Barnyardgrass [6]; 0.0357 lb/A,10%
same,inhibition at 200.072 g/ha,Barnyardgrass [6]; 0.1785 lb/A,15%
same,inhibition at 1000.92 g/ha,Barnyardgrass [6]; 0.893 lb/A,15%
same,inhibition at 7.95803 g/ha,Blackgrass; Table 4a,0%
same,inhibition at 7.95803 g/ha,Blackgrass; Table 5a,0%
same,inhibition at 40.0143 g/ha,Blackgrass; Table 4a,0%
same,inhibition at 40.0143 g/ha,Blackgrass; Table 5a,25%
same,inhibition at 200.072 g/ha,Blackgrass; Table 4a,10%
same,inhibition at 200.072 g/ha,Blackgrass; Table 5a,30%
same,inhibition at 1000.92 g/ha,Blackgrass; Table 4a,0%
same,inhibition at 1000.92 g/ha,Blackgrass; Table 5a,5%
same,inhibition at 7.95803 g/ha,Corn [7]; 0.0071 lb/A,5%
same,inhibition at 40.0143 g/ha,Corn [7]; 0.0357 lb/A,10%
same,inhibition at 200.072 g/ha,Corn [7]; 0.1785 lb/A,25%
same,inhibition at 280.212 g/ha,Corn [7]; 0.25 lb/A,10%
same,inhibition at 1000.92 g/ha,Corn [7]; 0.893 lb/A,25%
same,inhibition at 7.95803 g/ha,Soybean [8]; 0.0071 lb/A,10%
same,inhibition at 40.0143 g/ha,Soybean [8]; 0.0357 lb/A,20%
same,inhibition at 200.072 g/ha,Soybean [8]; 0.1785 lb/A,30%
same,inhibition at 280.212 g/ha,Soybean [8]; 0.25 lb/A,15%
same,inhibition at 1000.92 g/ha,Soybean [8]; 0.893 lb/A,25%
same,inhibition at 7.95803 g/ha,Velvetleaf [9]; 0.0071 lb/A,65%
same,inhibition at 40.0143 g/ha,Velvetleaf [9]; 0.0357 lb/A,100%
same,inhibition at 200.072 g/ha,Velvetleaf [9]; 0.1785 lb/A,100%
same,inhibition at 280.212 g/ha,Velvetleaf [9]; 0.25 lb/A,100%
same,inhibition at 1000.92 g/ha,Velvetleaf [9]; 0.893 lb/A,100%
same,inhibition at 7.95803 g/ha,Wheat; 0.0071 lb/A,10%
same,inhibition at 40.0143 g/ha,Wheat; 0.0357 lb/A,10%
same,inhibition at 200.072 g/ha,Wheat; 0.1785 lb/A,10%
same,inhibition at 1000.92 g/ha,Wheat; 0.893 lb/A,10%
same,inhibition at 7.95803 g/ha,Yellow Foxtail [10]; 0.0071 lb/A,0%
same,inhibition at 40.0143 g/ha,Yellow Foxtail [10]; 0.0357 lb/A,35%
same,inhibition at 200.072 g/ha,Yellow Foxtail [10]; 0.1785 lb/A,10%
same,inhibition at 1000.92 g/ha,Yellow Foxtail [10]; 0.893 lb/A,15%
